Assay results from patent US20250243180A1, “TARGETED PROTEIN DEGRADATION” (Monte Rosa Therapeutics AG, priority 2023, published 2025).
Where two headings read alike, the source gives them in different places.

Columns and labels:
NEK7 = NEK7 (Homo sapiens (Human), UniProt Q8TDX7+Q96SW2); test: NEK7 NanoBiT degradation assay in Cal51 NEK7 NanoBiT cell line; format: cell-based; details: Cal51 NEK7 NanoBiT cells, 24 hours; for Dmax: CAL-51
Protocol: Cal51 NEK7 NanoBiT cell line was generated via CRISPR Knock-In of the HiBiT tag in NEK7 gene and stable infection with a lentivirus carrying LgBiT protein. The cell line was generated in house. For the experiment, cells were plated in 384-well white flat bottom plates (Corning, 3570BC) at 2500 cells per well using Multiflo (BioTek/Agilent) and in 25 μl volume in DMEM experimental medium: DMEM (DMEM, high glucose, HEPES, no phenol red (ThermoFisher Scientific, 21063029) supplemented with 10% FBS (Corning, 35-075-CV), 1% Penicillin/Streptomycin ((ThermoFisher Scientific, 15140-122), and 1% Endurazine (Nano-Glo Endurazine Live Cell Substrate (Promega, N2571)). Cells were incubated for 16 hours at 37° C., 5% CO2 before compound addition. For dose response determination, 2.5 nL of a compound at different concentrations (stock compound concentration range: 10 mM to 0.5 μM, final concentration range inside cell plate: 1 μM to 0.05 nM) were dispensed into the plate using an Echo® 650 liquid handling device (Backman Coulter/Labcyte). Cells were incubated at 37° C., 5% CO2 for 24 hours and then signal was read on a Pherastar FSX using “LUM plus” optic module with 4095 gain and measurement interval time 0.2 seconds.
Analysis was performed in Genedata Screener (Genedata, Basel, CH). Luminescence response (R) was calculated by the formula: response=100*(S−N)/(P−N) where S is the signal of the well, N and P the mean negative and positive control values respectively of the same plate. The luminescence response was then fitted in Genedata using a 4-parameter antagonist logistic fit (hill slope unconstrained, EC50>0, top/bottom unconstrained).

CRBN-DDB1 = CRBN-DDB1 (Homo sapiens (Human), UniProt Q96SW2); test: Compound binding to CRBN by HTRF assay
Protocol: Compound activity was monitored in a Homogenous Time-Resolved Fluorescence (HTRF) assay using 1-[5-({2-[2-(2-{[2-(2,6-dioxopiperidin-3-yl)-1,3-dioxo-2,3-dihydro-1H-isoindol-4-yl]oxy}acetamido)ethoxy]ethyl}carbamoyl)pentyl]-3,3-dimethyl-2-[(1E,3E)-5-[(2E)-1,3,3-trimethyl-5-sulfo-2,3-dihydro-1H-indol-2-ylidene]penta-1,3-dien-1-yl]-3H-indol-1-ium-5-sulfonate as a fluorescent probe. Biochemical assays were conducted in Greiner white 384 well HiBase plates (Cat. No 784075-25) in 20 μL total volume. A one pot detection solution of CRBN-DDB1 (2.5 nM), Anti-His Terbium Cryptate Gold (1×, PerkinElmer Cat. #: 61HI2TLB), and Cy5-Thalidomide (100 nM, Tenova Cat.: T52461) was prepared in 20 mM HEPES, 20 mM NaCl, 0.2 mM TCEP, 0.2 mM EDTA, and 0.005% Tween20 was dispensed to each assay plate. Compounds were stored in dry, ambient temperatures at 10 mM. An 11-point, 1:3 dilution series was prepared from 10 mM stock concentrations in Echo-compatible LDV plates. 10 nL of each compound dilution series was dispensed into assays wells using an Echo 650 (Labcyte Inc. USA). 20 nL of 10 mM Lenalidomide was transferred into the active-control wells for the assay and 20 nL of DMSO was transferred into the neutral-control wells. The assay was then allowed to incubate for 30 min at ambient temperature after transferring compound. Plate measurements were taken on a Pherastar FSX (BMG Labtech, Germany) using the HTRF Red filter (Ex. 337 nm, em1: 620 nm, em2: 665 nm) (Flashes: 50, Integration time: 60-400 us, Z-height: 10 mm, Ratio-multiplier: 10,000). The HTRF signal was then subsequently normalized to the neutral and active controls. Analysis and EC50 values were derived using KNIME analytics (KNIME Zurich) transformation and fitting within Collaborative Drug Discovery (Collaborative Drug Discovery USA). Ki was derived from the geometric mean of the EC50 values using the Cheng-Prustoff transformation.

[1] = NEK7 degradation, read-out: NanoBiT Dmax
[2] = NEK7 degradation, read-out: NanoBiT DC50

Sequence of NEK7 (Q8TDX7 whole entry): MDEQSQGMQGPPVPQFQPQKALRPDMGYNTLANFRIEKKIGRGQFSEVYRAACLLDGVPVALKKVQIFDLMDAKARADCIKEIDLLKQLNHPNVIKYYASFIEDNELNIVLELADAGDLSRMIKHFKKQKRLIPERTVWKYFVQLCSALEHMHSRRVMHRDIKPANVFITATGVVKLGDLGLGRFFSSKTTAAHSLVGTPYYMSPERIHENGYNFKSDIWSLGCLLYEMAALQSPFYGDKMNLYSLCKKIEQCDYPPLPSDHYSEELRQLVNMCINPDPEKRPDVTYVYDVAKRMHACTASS
Sequence of NEK7 (Q96SW2 whole entry): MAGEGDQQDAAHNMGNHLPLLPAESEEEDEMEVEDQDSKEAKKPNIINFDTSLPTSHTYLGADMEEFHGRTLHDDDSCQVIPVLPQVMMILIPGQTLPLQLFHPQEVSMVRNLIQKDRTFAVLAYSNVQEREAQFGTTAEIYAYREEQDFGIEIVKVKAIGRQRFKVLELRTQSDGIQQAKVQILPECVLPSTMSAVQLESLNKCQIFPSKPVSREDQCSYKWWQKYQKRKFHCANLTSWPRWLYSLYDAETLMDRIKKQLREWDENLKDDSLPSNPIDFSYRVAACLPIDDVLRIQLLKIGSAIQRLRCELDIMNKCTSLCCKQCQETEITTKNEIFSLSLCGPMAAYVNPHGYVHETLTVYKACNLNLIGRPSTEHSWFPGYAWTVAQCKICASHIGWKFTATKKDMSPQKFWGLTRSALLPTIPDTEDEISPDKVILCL
Sequence of NEK7 (Q16531 2-1140 partner): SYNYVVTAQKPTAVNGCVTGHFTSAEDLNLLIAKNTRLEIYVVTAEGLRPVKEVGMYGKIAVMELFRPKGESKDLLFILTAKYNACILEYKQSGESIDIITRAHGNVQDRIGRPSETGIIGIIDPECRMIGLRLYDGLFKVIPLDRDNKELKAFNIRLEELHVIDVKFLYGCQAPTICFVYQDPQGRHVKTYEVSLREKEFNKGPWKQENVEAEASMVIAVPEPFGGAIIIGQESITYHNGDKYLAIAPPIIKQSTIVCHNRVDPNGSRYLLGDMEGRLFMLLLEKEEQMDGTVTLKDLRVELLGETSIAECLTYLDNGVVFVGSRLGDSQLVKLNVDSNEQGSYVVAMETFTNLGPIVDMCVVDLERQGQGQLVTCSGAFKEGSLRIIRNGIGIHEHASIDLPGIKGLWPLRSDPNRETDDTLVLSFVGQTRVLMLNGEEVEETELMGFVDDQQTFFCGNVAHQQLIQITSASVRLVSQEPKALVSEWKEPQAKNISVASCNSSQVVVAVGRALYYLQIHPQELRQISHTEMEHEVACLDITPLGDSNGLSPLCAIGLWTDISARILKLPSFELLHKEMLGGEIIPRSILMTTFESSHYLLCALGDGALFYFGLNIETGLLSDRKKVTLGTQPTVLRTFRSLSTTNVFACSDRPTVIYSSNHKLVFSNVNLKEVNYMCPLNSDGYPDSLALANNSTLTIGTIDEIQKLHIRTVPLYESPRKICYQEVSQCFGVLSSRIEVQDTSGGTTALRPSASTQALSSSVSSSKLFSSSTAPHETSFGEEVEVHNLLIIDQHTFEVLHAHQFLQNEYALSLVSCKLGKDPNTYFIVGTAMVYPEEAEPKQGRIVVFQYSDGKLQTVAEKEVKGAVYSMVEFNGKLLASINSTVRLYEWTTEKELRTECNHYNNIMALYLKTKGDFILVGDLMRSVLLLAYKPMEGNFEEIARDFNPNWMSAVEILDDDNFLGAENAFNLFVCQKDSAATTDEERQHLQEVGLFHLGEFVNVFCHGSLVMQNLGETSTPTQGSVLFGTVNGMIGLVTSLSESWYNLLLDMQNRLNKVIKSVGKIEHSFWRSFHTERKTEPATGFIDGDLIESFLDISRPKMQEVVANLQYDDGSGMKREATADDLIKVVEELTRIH
Sequence of CRBN-DDB1 (Q96SW2 whole entry): as the sequence (Q96SW2 whole entry) above
Sequence of CRBN-DDB1 (Q16531 whole entry partner): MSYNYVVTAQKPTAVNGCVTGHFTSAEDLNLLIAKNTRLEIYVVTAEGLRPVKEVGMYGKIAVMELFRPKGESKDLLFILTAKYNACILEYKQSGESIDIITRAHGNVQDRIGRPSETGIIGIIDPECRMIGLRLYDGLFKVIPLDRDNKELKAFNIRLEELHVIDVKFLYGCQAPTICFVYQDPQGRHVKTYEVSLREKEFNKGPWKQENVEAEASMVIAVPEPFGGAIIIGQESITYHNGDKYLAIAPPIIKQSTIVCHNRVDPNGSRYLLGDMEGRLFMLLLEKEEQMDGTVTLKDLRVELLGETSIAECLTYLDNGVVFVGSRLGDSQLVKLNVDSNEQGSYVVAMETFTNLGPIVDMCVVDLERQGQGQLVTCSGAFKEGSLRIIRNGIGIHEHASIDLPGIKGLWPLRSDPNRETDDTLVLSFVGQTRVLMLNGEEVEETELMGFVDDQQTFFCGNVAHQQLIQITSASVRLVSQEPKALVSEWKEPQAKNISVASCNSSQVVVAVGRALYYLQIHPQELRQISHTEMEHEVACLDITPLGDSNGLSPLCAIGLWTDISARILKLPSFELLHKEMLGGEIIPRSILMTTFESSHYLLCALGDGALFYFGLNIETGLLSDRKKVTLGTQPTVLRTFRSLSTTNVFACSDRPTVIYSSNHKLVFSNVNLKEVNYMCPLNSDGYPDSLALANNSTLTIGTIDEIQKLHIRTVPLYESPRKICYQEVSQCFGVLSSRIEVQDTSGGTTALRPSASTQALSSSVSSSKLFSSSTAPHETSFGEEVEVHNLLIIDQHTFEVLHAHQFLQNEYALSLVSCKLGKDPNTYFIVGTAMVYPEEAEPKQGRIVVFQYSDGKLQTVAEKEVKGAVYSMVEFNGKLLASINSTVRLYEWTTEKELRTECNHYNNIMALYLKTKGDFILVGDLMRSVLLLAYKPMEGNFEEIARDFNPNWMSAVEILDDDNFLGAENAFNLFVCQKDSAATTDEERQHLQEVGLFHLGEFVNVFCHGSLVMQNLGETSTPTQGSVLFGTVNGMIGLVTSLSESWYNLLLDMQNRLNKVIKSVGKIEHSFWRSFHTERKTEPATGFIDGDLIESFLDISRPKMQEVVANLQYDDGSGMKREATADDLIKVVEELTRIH

Compound	Dmax (NEK7; read-out: NEK7 NanoBiT Dmax) [%]	Dmax (NEK7; [1]) [%]	DC50 (NEK7; read-out: NEK7 NanoBiT DC50) [nM]	DC50 (NEK7; [2]) [nM]	EC50 (CRBN-DDB1) [nM]	EC50 (CRBN-DDB1; HTRF class, Cereblon binding) [nM]
CC(C)(C(=O)NCc1cc(Cl)c(C2CCC(=O)NC2=O)c(Cl)c1)c1ncc(C2CC2)cn1 (stereo not drawn) [Compound 1, 2-(5-cyclopropylpyrimidin-2-yl)-N-(3,5-dichloro-4-(2,6-dioxopiperidin-3-yl)benzyl)-2-methylpropan-amide]	89	> 75	9	≤ 100	150	100 to 1000
CC(C)(C(=O)NCc1cc(Cl)c(C2CCC(=O)NC2=O)c(Cl)c1)c1cc2ncccc2cn1 (stereo not drawn) [Compound 2, N-(3,5-dichloro-4-(2,6-dioxopiperidin-3-yl)benzyl)-2-methyl-2-(1,6-naphthyridin-7-yl)propanamide]	94	> 75	3	≤ 100	110	100 to 1000
CC(C)(C(=O)NCc1ccc(C2CCC(=O)NC2=O)c(Cl)c1)c1cnc(F)nc1 (stereo not drawn) [Compound 3]	65	50 to 75	242	100 to 1000	500	100 to 1000
CC(C)(C(=O)NCc1cc(Cl)c(C2CCC(=O)NC2=O)c(Cl)c1)c1ccc(C(F)F)cn1 (stereo not drawn) [Compound 4, N-(3,5-dichloro-4-(2,6-dioxopiperidin-3-yl)benzyl)-2-(5-(difluoromethyl)pyridin-2-yl)-2-methylpropanamide]	94	> 75	3	≤ 100	120	100 to 1000
CC(C)(C(=O)NCc1cc(Cl)c(C2CCC(=O)NC2=O)c(Cl)c1)c1cnc(F)nc1 (stereo not drawn) [Compound 5, N-(3,5-dichloro-4-(2,6-dioxopiperidin-3-yl)benzyl)-2-(2-fluoropyrimidin-5-yl)-2-methylpropanamide]	63	50 to 75	133	100 to 1000	120	100 to 1000
CC(C)(C(=O)NCc1cc(Cl)c(C2CCC(=O)NC2=O)c(Cl)c1)c1ccc(C(F)F)nn1 (stereo not drawn) [Compound 6, N-(3,5-dichloro-4-(2,6-dioxopiperidin-3-yl)benzyl)-2-(6-(difluoromethyl)pyridazin-3-yl)-2-methylpropanamide]	91	> 75	7	≤ 100	210	100 to 1000
CC(C)(C(=O)NCc1cc(Cl)c(C2CCC(=O)NC2=O)c(Cl)c1)c1cccnn1 (stereo not drawn) [Compound 7, N-(3,5-dichloro-4-(2,6-dioxopiperidin-3-yl)benzyl)-2-methyl-2-(pyridazin-3-yl)propanamide]	72	50 to 75	61	≤ 100	150	100 to 1000
Cn1ncc(C(C)(C)C(=O)NCc2cc(Cl)c(C3CCC(=O)NC3=O)c(Cl)c2)cc1=O (stereo not drawn) [Compound 9, N-(3,5-dichloro-4-(2,6-dioxopiperidin-3-yl)benzyl)-2-methyl-2-(1-methyl-6-oxo-1,6-dihydropyridazin-4-yl)propanamide]	85	> 75	22	≤ 100	210	100 to 1000
CC(C)(C(=O)NCc1cc(Cl)c(C2CCC(=O)NC2=O)c(Cl)c1)c1ccc2ncoc2c1 (stereo not drawn) [Compound 10, 2-(benzo[d]oxazol-6-yl)-N-(3,5-dichloro-4-(2,6-dioxopiperidin-3-yl)benzyl)-2-methylpropanamide]	97	> 75	1	≤ 100	60	≤ 100

Continued, values first:

Dmax (NEK7; read-out: NEK7 NanoBiT Dmax) [%]	Dmax (NEK7; [1]) [%]	DC50 (NEK7; read-out: NEK7 NanoBiT DC50) [nM]	DC50 (NEK7; [2]) [nM]	EC50 (CRBN-DDB1) [nM]	EC50 (CRBN-DDB1; HTRF class, Cereblon binding) [nM]	Compound
19	≤ 50	1000	> 1000	220	100 to 1000	Cc1cnc(C(C)(C)C(=O)NCc2cc(Cl)c([C@@]3(F)CCC(=O)NC3=O)c(Cl)c2)nc1 (single isomer, unassigned) [Compound 244]
70	50 to 75	136	100 to 1000	250	100 to 1000	CC(C)(C(=O)NCc1cc(Cl)c([C@]2(F)CCC(=O)NC2=O)c(Cl)c1)c1ccccc1 (single isomer, unassigned) [Compound 273]
3	≤ 50	1000	> 1000	≥ 10000	> 1000	CC(C)(C(=O)NCc1cc(Cl)c([C@@]2(F)CCC(=O)NC2=O)c(Cl)c1)c1ccccc1 (single isomer, unassigned) [Compound 274]
93	> 75	6	≤ 100	210	100 to 1000	CC(C)(C(=O)NCc1cc(Cl)c(C2CCC(=O)NC2=O)c(Cl)c1)c1ncncc1F (stereo not drawn) [Compound 8]
90	> 75	9	≤ 100	190	100 to 1000	CC(C)(C(=O)NCc1cc(Cl)c(C2CCC(=O)NC2=O)c(Cl)c1)c1ncc(F)cn1 (stereo not drawn) [Compound 11]
91	> 75	8	≤ 100	170	100 to 1000	Cc1ccc(C(C)(C)C(=O)NCc2cc(Cl)c(C3CCC(=O)NC3=O)c(Cl)c2)nn1 (stereo not drawn) [Compound 12]
73	50 to 75	56	≤ 100	200	100 to 1000	CC(C)(C(=O)NCc1cc(Cl)c(C2CCC(=O)NC2=O)c(Cl)c1)c1cnc(C#N)nc1 (stereo not drawn) [Compound 13]
95	> 75	4	≤ 100	120	100 to 1000	CC(C)(C(=O)NCc1cc(Cl)c(C2CCC(=O)NC2=O)c(Cl)c1)c1ccc(C#N)cn1 (stereo not drawn) [Compound 15, 2-(5-cyanopyridin-2-yl)-N-(3,5-dichloro-4-(2,6-dioxopiperidin-3-yl)benzyl)-2-methylpropanamide]
